Literature values, collected in patent US20030109670A1, “Cone snail peptides” (University of Utah Research Foundation, priority 2001, published 2003).
Ends that are not written are not given here.

Experiments:
[1] = in vivo
[2] = in vivo; remark: listed apart in the source
[3] = IBS patients

Contulakin-G: 16 amino acid O-linked glycopeptide from Conus geographus, agonist of neurotensin receptors (QSEEGGSNATKKPYIL; also: O-linked glycan, site not given here; UniProt Q9XYR5 51-66, looked up)
potency in inhibiting pain relative to neurotensin [1]: significantly more potent than neurotensin

CSCC[C@@H]1NC(=O)[C@H](CC(C)C)NC(=O)[C@H](CCCNC(=N)N)NC(=O)[C@H](CO)NC(=O)[C@@H]2CSSC[C@@H]3NC(=O)[C@H](CO)NC(=O)CNC(=O)[C@H]([C@@H](C)O)NC(=O)[C@H](CSSC[C@H](N)C(=O)N[C@@H](CCCCN)C(=O)NCC(=O)N[C@@H](CCCCN)C(=O)NCC(=O)N[C@@H](C)C(=O)N[C@@H](CCCCN)C(=O)N2)NC(=O)[C@H](CSSC[C@@H](C(N)=O)NC(=O)[C@H](CCCCN)NC(=O)CNC(=O)[C@H](CO)NC(=O)[C@H](CCCNC(=N)N)NC3=O)NC(=O)[C@H](CC(=O)O)NC(=O)[C@H](Cc2ccc(O)cc2)NC1=O [ω-Conotoxin MVIIA]
potency relative to morphine [2]: approximately 1000 times
tolerance or addictive properties [2]: does not produce the tolerance or addictive properties of opiates

Cc1[nH]cnc1CN1CCc2c(c3ccccc3n2C)C1=O [Alosteron]
perception of colonic distension and gut compliance [3]: active in modifying the perception of colonic distension and gut compliance
abdominal pain, colonic transit, colon compliance ([3]; phase III compound): reduce abdominal pain, slow colonic transit and increase colon compliance
